The results in this text go back to patent US20110237538A1, “TREATMENT OF LYSOSOMAL STORAGE DISORDERS AND OTHER PROTEOSTATIC DISEASES” (SUMMIT CORPORATION PLC, priority 2008, published 2011).

Format in all cases: biochemical
Test [1] concerns the target T1, Jack bean α-D-mannosidase (Canavalia ensiformis, UniProt C0HJB3).
T1 construct: purchased Sigma M7257
T1 sequence (C0HJB3 1-981): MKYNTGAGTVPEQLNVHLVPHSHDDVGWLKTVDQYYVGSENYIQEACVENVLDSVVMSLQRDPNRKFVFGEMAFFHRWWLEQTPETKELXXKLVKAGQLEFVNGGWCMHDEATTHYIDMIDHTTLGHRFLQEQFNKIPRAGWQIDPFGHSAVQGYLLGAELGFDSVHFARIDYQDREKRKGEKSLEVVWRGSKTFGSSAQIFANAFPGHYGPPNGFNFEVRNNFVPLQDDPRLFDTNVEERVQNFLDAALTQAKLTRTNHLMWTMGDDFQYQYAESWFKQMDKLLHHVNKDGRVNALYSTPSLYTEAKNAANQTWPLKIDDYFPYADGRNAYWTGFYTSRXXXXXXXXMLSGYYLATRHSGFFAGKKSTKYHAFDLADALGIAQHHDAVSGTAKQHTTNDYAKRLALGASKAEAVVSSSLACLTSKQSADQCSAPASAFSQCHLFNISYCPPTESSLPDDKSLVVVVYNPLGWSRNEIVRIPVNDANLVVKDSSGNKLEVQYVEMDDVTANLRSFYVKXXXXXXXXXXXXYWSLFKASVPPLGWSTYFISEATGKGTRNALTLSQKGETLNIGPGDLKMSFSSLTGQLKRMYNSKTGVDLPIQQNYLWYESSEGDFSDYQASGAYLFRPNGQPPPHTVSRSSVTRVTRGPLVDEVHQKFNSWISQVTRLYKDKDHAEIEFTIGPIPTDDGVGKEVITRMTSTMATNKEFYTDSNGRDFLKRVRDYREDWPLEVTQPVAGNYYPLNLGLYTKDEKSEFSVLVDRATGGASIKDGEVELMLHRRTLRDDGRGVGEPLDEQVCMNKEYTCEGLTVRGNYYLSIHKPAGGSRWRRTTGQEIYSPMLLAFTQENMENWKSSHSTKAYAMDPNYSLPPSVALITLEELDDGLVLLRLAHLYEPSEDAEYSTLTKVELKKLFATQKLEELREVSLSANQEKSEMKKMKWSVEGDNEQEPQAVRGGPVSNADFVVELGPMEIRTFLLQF
The test can be described thus: α-mannosidase activity assay with p-nitrophenyl-α-D-mannopyranoside (Example 1). Here is the method: Solutions of 0.2M Mcllvane buffer at pH 4.5 and 5 mM p-nitrophenyl-α-D-mannopyranoside (Sigma, N2127), dissolved in the buffer, were prepared. A solution of Jack bean α-D-mannosidase enzyme (Sigma, M7257, 22 Units/mg, 6.2 mg/ml.) was also prepared at 0.6 Units/ml in the buffer.
The incubation mixture consisted of 10 μl enzyme solution, 10 μl of 1 mg/ml aqueous iminosugar solution and 50 μl of 5 mM substrate made up in buffer at the optimum pH for the enzyme. The reactions were stopped by addition of 70 μl 0.4M glycine (pH 10.4) during the exponential phase of the reaction, which had been determined at the beginning using uninhibited assays in which water replaced inhibitor. Final absorbances were read at 405 nm using a Versamax microplate reader (Molecular Devices). Assays were carried out in triplicate, and the values given are means of the three replicates. Results were expressed as a percentage of uninhibited assays in which water replaced inhibitor.

Test [2] addresses T2, α-D-galactosidase (green coffee beans) (Coffea arabica, UniProt Q42656).
T2 construct: purchased Sigma Aldrich Chemicals Limited
Nature of the test: glycosidase assay with p-nitrophenyl substrates (Example 2). Particulars: 10 μl of 5 mM iminosugar solution in 70 μl incubation mixture; 20° C.; read-out: Promotion of glycosidase activity: α-D-galactosidase (Green coffee bean). As for the experimental part: (§1) The assays were conducted as described by Watson et al. 1997, Phytochemistry 46: 255-259 using p-nitrophenyl-substrates. Assays were carried out in microtitre plates. Enzymes were assayed in 0.1M citric acid/0.2M di-sodium hydrogen phosphate (Mcllvaine) buffers at the optimum pH for the enzyme. All assays were carried out at 20° C. All enzymes and substrates were purchased from Sigma Aldrich Chemicals Limited. The incubation mixture consisted of 10 μl of enzyme solution, 10 μl of the iminosugars solution (made up in deionised water at 5 mM) and 50 μl of the appropriate 5 mM p-nitrophenyl substrate made up in McIlvaine buffer at the optimum pH for the enzyme. The reactions were stopped with 0.4M glycine (pH 10.4) during the exponential phase of the reaction, which was determined at the beginning of the assay using blanks with water, which were incubated for a range of time periods to measure the reaction rate using 5 mM substrate solution. Absorbances were read at 405 nm. Water was substituted for the inhibitors in the blanks.
(§2) The glycosidases used were α-D-glucosidase (yeast), α-D-glucosidase (Bacillus sterothermophilus), α-D-glucosidase (rice), amyloglucosidase (Aspergillus niger), β-D-glucosidase (almond), α-D-galactosidase (green coffee beans), β-D-galactosidase (bovine liver), α-L-fucosidase (bovine kidney), α-D-mannosidase (Jack bean), β-D-mannosidase (Cellullomonas fimi), Naringinase (Penicillium decumbens), N-acetyl-β-D-glucosaminidase (Bovine kidney), N-acetyl-β-D-glucosaminidase (Aspergillus oryzae) and N-acetyl-β-D-glucosaminidase (Jack bean)

For test [3], the system named is α-D-glucosidase (Bacillus sterothermophilus). The test is described as above. Particulars: 10 μl of 5 mM iminosugar solution in 70 μl incubation mixture; 20° C. As for the experimental part: as §1, §2
In test [4] the test system is N-acetyl-β-D-glucosaminidase (Bovine kidney). The description is as above. Particulars: 10 μl of 5 mM iminosugar solution in 70 μl incubation mixture; 20° C. As for the experimental part: as §1, §2
Test [5] deals with T3, α-D-mannosidase (Jack bean) (Canavalia ensiformis, UniProt C0HJB3).
T3 construct: purchased Sigma Aldrich Chemicals Limited
T3 sequence (C0HJB3 1-981): T1 sequence (C0HJB3 1-981)
The description is as above. Particulars: 10 μl of 5 mM iminosugar solution in 70 μl incubation mixture; 20° C. As for the experimental part:
as §1, §2

Setting [6] is: Jack Bean α-mannosidase, p-nitrophenyl-α-D-mannopyranoside as the substrate.

T2 sequence (Q42656 16-378): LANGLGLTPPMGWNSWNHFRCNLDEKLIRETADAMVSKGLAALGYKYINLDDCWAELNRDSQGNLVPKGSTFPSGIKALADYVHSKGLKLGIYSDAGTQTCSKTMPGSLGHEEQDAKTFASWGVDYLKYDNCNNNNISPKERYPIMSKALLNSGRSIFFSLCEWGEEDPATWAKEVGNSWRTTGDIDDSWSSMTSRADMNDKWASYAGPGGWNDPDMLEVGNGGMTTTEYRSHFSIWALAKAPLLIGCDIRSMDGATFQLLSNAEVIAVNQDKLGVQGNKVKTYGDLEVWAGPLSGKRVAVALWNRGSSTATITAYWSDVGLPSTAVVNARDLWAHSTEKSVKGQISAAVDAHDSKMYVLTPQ

As to `N[C@H]1[C@H](O)[C@H](O)[C@@H](O)[C@H](O)[C@@H]1CO` [Compound A], the stimulation in test [1] (Compound A alone) was found to be 90%. Besides, the “promotion of the mannosidase activity (in words)” value (“promotion … (in words)” below) in test [1] (setting [6]) is “strong stimulation”.
For the molecule `CCCCCCCCCN1C[C@@H](O)[C@@H](O)[C@@H]1[C@@H](O)CO` [Compound 316, (2S,3S,4R)-2-((R)-1,2-dihydroxyethyl)-1-nonylpyrrolidine-3,4-diol], the activation at 714 µM in test [2] is 42%. For the same molecule, in test [3], the “Promotion of glycosidase activity: α-D-glucosidase (Bacillus sterothermophilus)” value (“Promotion … (Bacillus sterothermophilus)” below) was 167 % increase in absorbance compared to the water controls. Moreover, in test [4], the “Promotion of glycosidase activity: N-acetyl-β-D-gluc (Bovine kidney)” value (from here on “Promotion … (Bovine kidney)”) was 94 % increase in absorbance compared to the water controls.
Take `O=C1NC[C@@H](O)[C@@H](O)[C@]1(O)CO` [Compound 170, (3R,4R,5R)-3,4,5-trihydroxy-3-(hydroxymethyl)piperidin-2-one]: the “promotion … (in words)” value in test [1] (setting [6]) is recorded as “promotion of the mannosidase activity”.
Turning to `CCCCN1C[C@@H](N)C[C@H]1CO` [Compound 292, ((2S,4S)-4-amino-1-butylpyrrolidin-2-yl)methanol], the “Promotion of glycosidase activity: α-D-mannosidase (Jack bean)” value (“Promotion … (Jack bean)” below) in test [5] is reported as 34 % increase in absorbance compared to the water controls.
Regarding `CCOP(=O)(CCCN1C[C@@H](N=[N+]=[N-])C[C@H]1CO)OCC` [Compound 291, diethyl 3-((2S,4S)-4-azido-2-(hydroxymethyl)pyrrolidin-1-yl)propylphosphonate], the “Promotion … (Jack bean)” value in test [5] was 43 % increase in absorbance compared to the water controls. In addition, the “Promotion … (Bacillus sterothermophilus)” value in test [3] is on record as 49 % increase in absorbance compared to the water controls.
For `CCCC[N@@+]1([O-])C[C@@H](O)[C@H](O)[C@@H]1CO` [Compound 178, (1R,2S,3R,4R)-1-butyl-3,4-dihydroxy-2-(hydroxymethyl)pyrrolidine 1-oxide], the “Promotion … (Jack bean)” value in test [5] was 35 % increase in absorbance compared to the water controls. Besides, in test [3], the “Promotion … (Bacillus sterothermophilus)” value was 161 % increase in absorbance compared to the water controls. Besides, the “Promotion … (Bovine kidney)” value in test [4] was 85 % increase in absorbance compared to the water controls.
Take `CCCC[N+]1([O-])C[C@@H](O)[C@H](O)[C@H]1CO` (stereo partly drawn) [Compound 95, (2R,3R,4R)-1-butyl-3,4-dihydroxy-2-(hydroxymethyl)pyrrolidine 1-oxide]: in test [2], the activation at 714 µM turned out to be 35%. For the same molecule, in test [5], the “Promotion … (Jack bean)” value is on record as 86 % increase in absorbance compared to the water controls. For the same molecule, the “Promotion … (Bacillus sterothermophilus)” value in test [3] is 53 % increase in absorbance compared to the water controls. For the same molecule, in test [4], the “Promotion … (Bovine kidney)” value is listed as 46 % increase in absorbance compared to the water controls.
In the case of `CCCC[N@+]1([O-])C[C@H](O)[C@@H](O)[C@H]1CO` [Compound 165, (1S,2R,3S,4S)-1-butyl-3,4-dihydroxy-2-(hydroxymethyl)pyrrolidine 1-oxide], the “Promotion … (Jack bean)” value in test [5] was 43 % increase in absorbance compared to the water controls. Besides, in test [3], the “Promotion … (Bacillus sterothermophilus)” value was 72 % increase in absorbance compared to the water controls. Besides, in test [4], the “Promotion … (Bovine kidney)” value was 76 % increase in absorbance compared to the water controls.
For the molecule `O[C@H]1[C@H]2[C@H](O)CCCN2C[C@H]1O` [swainsonine, reference compound], in test [1] (setting [6]), the “inhibition of the mannosidase (in words)” value is given as “total inhibition of the promoted activity” and the “promotion … (in words)” value is “does not cause promotion”.
As to `CC1(C)O[C@H]2[C@H](O)[C@@H](CO[Si](C)(C)C(C)(C)C)NC(=O)[C@H]2O1` [Compound 238, (3aS,6R,7R,7aS)-6-((tert-butyldimethylsilyloxy)methyl)-7-hydroxy-2,2-dimethyltetrahydro-[1,3]dioxolo[4,5-c]pyridin-4(3aH)-one], the activation at 714 µM in test [2] amounted to 30%. In test [3], the “Promotion … (Bacillus sterothermophilus)” value is listed as 127 % increase in absorbance compared to the water controls. Moreover, the “Promotion … (Bovine kidney)” value in test [4] was 31 % increase in absorbance compared to the water controls.
With `OC[C@H](O)[C@@H]1NC[C@@](O)(CO)[C@H]1O` [Compound 200, (2S,3S,4R)-2-((R)-1,2-dihydroxyethyl)-4-(hydroxymethyl)pyrrolidine-3,4-diol], the “promotion … (in words)” value in test [1] (setting [6]) is “promotion of the mannosidase activity”.
As for `CN1C[C@H](O)C(O)[C@@H](O)C1` [Compound 299, (3S,5S)-1-methylpiperidine-3,4,5-triol], the “Promotion … (Jack bean)” value in test [5] is 35 % increase in absorbance compared to the water controls.
For the molecule `O=C1N[C@H]([C@H](O)CO)[C@H](OCc2ccccc2)[C@@H]1OCc1ccccc1` [Compound 242, (3S,4S,5R)-3,4-bis(benzyloxy)-5-((S)-1,2-dihydroxyethyl)pyrrolidin-2-one], in test [2], the activation at 714 µM was found to be 38%. Moreover, the “Promotion … (Bacillus sterothermophilus)” value in test [3] was 65 % increase in absorbance compared to the water controls. Further, in test [4], the “Promotion … (Bovine kidney)” value is 59 % increase in absorbance compared to the water controls.
On to `O=C(O)[C@@]1(O)CNC[C@@H](O)[C@H]1O` [Compound 87, (3R,4R,5R)-3,4,5-trihydroxypiperidine-3-carboxylic acid], for which the “promotion … (in words)” value in test [1] (setting [6]) is listed as “promotion of the mannosidase activity”.
